Measured values from ChEMBL document CHEMBL3885881, “DrugMatrix”.

Species on record: Rattus norvegicus
Experiment: DrugMatrix - Regimen: Daily Repeat
Type: toxicity, organism-based, Sprague-Dawley
Design: regimen Daily Repeat, gender Male, age 6-8 weeks
Details: in vivo, po, route oral GAVAGE, vehicle 100 % WATER; for ABSOLUTE BASOPHIL / ABSOLUTE EOSINOPHIL / ABSOLUTE LYMPHOCYTE / ABSOLUTE MONOCYTE / ABSOLUTE SEGMENTED NEUTROPHIL / BASOPHIL / EOSINOPHIL / ERYTHROCYTE COUNT / HEMATOCRIT / HEMOGLOBIN / LEUKOCYTE COUNT / LYMPHOCYTE / MEAN CORPUSCULAR HEMOGLOBIN / MEAN CORPUSCULAR HEMOGLOBIN CONCENTRATION / MEAN CORPUSCULAR VOLUME / MONOCYTE / NEUTROPHIL / NUCLEATED RED BLOOD CELLS / PLATELET COUNT: tissue Blood; for ALANINE AMINOTRANSFERASE / ALBUMIN / ALKALINE PHOSPHATASE / ASPARTATE AMINOTRANSFERASE / BLOOD UREA NITROGEN / CARBON DIOXIDE / CHLORIDE / CHOLESTEROL / CREATINE PHOSPHOKINASE / CREATININE / GLUCOSE / LACTATE DEHYDROGENASE / LIPASE / PHOSPHORUS / POTASSIUM / SODIUM / TOTAL BILIRUBIN / TOTAL PROTEIN / URIC ACID: tissue Plasma
[1] = 17 mg/kg, 72 h, dose level High, time 3 day
[2] = 17 mg/kg, 120 h, dose level High, time 5 day
[3] = […], 72 h, dose 1.7 mg/Kg, dose level Low, time 3 day
[4] = […], 120 h, dose 1.7 mg/Kg, dose level Low, time 5 day

COP(=O)(OC)OC=C(Cl)Cl [DICHLORVOS]
ABSOLUTE BASOPHIL [1]: 0 CELLS/uL | ABSOLUTE EOSINOPHIL [1]: 43.33 CELLS/uL | ABSOLUTE LYMPHOCYTE [1]: 12252 CELLS/uL | ABSOLUTE MONOCYTE [1]: 527.33 CELLS/uL | ABSOLUTE SEGMENTED NEUTROPHIL [1]: 1577.33 CELLS/uL | BASOPHIL [1]: 0% | EOSINOPHIL [1]: 0.33% | ERYTHROCYTE COUNT [1]: 5.59 x10E6/uL | HEMATOCRIT [1]: 34.9% | HEMOGLOBIN [1]: 13.5 G/DL | LEUKOCYTE COUNT [1]: 14.4 x10E3/uL | LYMPHOCYTE [1]: 85% | MEAN CORPUSCULAR HEMOGLOBIN [1]: 24.17 pg | MEAN CORPUSCULAR HEMOGLOBIN CONCENTRATION [1]: 38.7 G/DL | MEAN CORPUSCULAR VOLUME [1]: 62.53 fL | MONOCYTE [1]: 3.67% | NEUTROPHIL [1]: 11% | NUCLEATED RED BLOOD CELLS [1]: 0 /100WBC | PLATELET COUNT [1]: 1225.67 x10E3/uL | ALANINE AMINOTRANSFERASE [1]: 49.67 u/L | ALBUMIN [1]: 4 G/DL | ALKALINE PHOSPHATASE [1]: 370.33 u/L | ASPARTATE AMINOTRANSFERASE [1]: 92 u/L | BLOOD UREA NITROGEN [1]: 17.67 mg/dL | CARBON DIOXIDE [1]: 27 mmol/L | CHLORIDE [1]: 104.33 MEQ/L | CHOLESTEROL [1]: 63.67 mg/dL | CREATINE PHOSPHOKINASE [1]: 448 u/L | CREATININE [1]: 0.2 mg/dL | GLUCOSE [1]: 141 mg/dL | LACTATE DEHYDROGENASE [1]: 444.33 u/L | LIPASE [1]: 8.33 u/L | PHOSPHORUS [1]: 12.67 mg/dL | POTASSIUM [1]: 6.46 MEQ/L | SODIUM [1]: 145.9 MEQ/L | TOTAL BILIRUBIN [1]: 0.2 mg/dL | TOTAL PROTEIN [1]: 5.77 G/DL | URIC ACID [1]: 1.23 mg/dL | ABSOLUTE BASOPHIL [2]: 0 CELLS/uL | ABSOLUTE EOSINOPHIL [2]: 213.33 CELLS/uL | ABSOLUTE LYMPHOCYTE [2]: 13980 CELLS/uL | ABSOLUTE MONOCYTE [2]: 329.33 CELLS/uL | ABSOLUTE SEGMENTED NEUTROPHIL [2]: 1944 CELLS/uL | BASOPHIL [2]: 0% | EOSINOPHIL [2]: 1.33% | ERYTHROCYTE COUNT [2]: 5.69 x10E6/uL | HEMATOCRIT [2]: 34.17% | HEMOGLOBIN [2]: 13.03 G/DL | LEUKOCYTE COUNT [2]: 16.47 x10E3/uL | LYMPHOCYTE [2]: 85% | MEAN CORPUSCULAR HEMOGLOBIN [2]: 22.9 pg | MEAN CORPUSCULAR HEMOGLOBIN CONCENTRATION [2]: 38.13 G/DL | MEAN CORPUSCULAR VOLUME [2]: 60.07 fL | MONOCYTE [2]: 2% | NEUTROPHIL [2]: 11.67% | NUCLEATED RED BLOOD CELLS [2]: 0 /100WBC | PLATELET COUNT [2]: 1272.67 x10E3/uL | ALANINE AMINOTRANSFERASE [2]: 46 u/L | ALBUMIN [2]: 4.23 G/DL | ALKALINE PHOSPHATASE [2]: 289.33 u/L | ASPARTATE AMINOTRANSFERASE [2]: 91 u/L | BLOOD UREA NITROGEN [2]: 19.33 mg/dL | CARBON DIOXIDE [2]: 24.67 mmol/L | CHLORIDE [2]: 105.33 MEQ/L | CHOLESTEROL [2]: 60.33 mg/dL | CREATINE PHOSPHOKINASE [2]: 609.33 u/L | CREATININE [2]: 0.22 mg/dL | GLUCOSE [2]: 167.33 mg/dL | LACTATE DEHYDROGENASE [2]: 458 u/L | LIPASE [2]: 8.33 u/L | PHOSPHORUS [2]: 12.8 mg/dL | POTASSIUM [2]: 5.47 MEQ/L | SODIUM [2]: 146.93 MEQ/L | TOTAL BILIRUBIN [2]: 0.13 mg/dL | TOTAL PROTEIN [2]: 5.8 G/DL | URIC ACID [2]: 1.37 mg/dL | ABSOLUTE BASOPHIL [3]: 0 CELLS/uL | ABSOLUTE EOSINOPHIL [3]: 0 CELLS/uL | ABSOLUTE LYMPHOCYTE [3]: 12487 CELLS/uL | ABSOLUTE MONOCYTE [3]: 388 CELLS/uL | ABSOLUTE SEGMENTED NEUTROPHIL [3]: 1291.67 CELLS/uL | BASOPHIL [3]: 0% | EOSINOPHIL [3]: 0% | ERYTHROCYTE COUNT [3]: 6.29 x10E6/uL | HEMATOCRIT [3]: 38.27% | HEMOGLOBIN [3]: 14.27 G/DL | LEUKOCYTE COUNT [3]: 14.17 x10E3/uL | LYMPHOCYTE [3]: 88.33% | MEAN CORPUSCULAR HEMOGLOBIN [3]: 22.67 pg | MEAN CORPUSCULAR HEMOGLOBIN CONCENTRATION [3]: 37.3 G/DL | MEAN CORPUSCULAR VOLUME [3]: 60.77 fL | MONOCYTE [3]: 2.67% | NEUTROPHIL [3]: 9% | NUCLEATED RED BLOOD CELLS [3]: 0 /100WBC | PLATELET COUNT [3]: 1299 x10E3/uL | ALANINE AMINOTRANSFERASE [3]: 50 u/L | ALBUMIN [3]: 4.4 G/DL | ALKALINE PHOSPHATASE [3]: 363 u/L | ASPARTATE AMINOTRANSFERASE [3]: 81.33 u/L | BLOOD UREA NITROGEN [3]: 14.67 mg/dL | CARBON DIOXIDE [3]: 23 mmol/L | CHLORIDE [3]: 104 MEQ/L | CHOLESTEROL [3]: 85.67 mg/dL | CREATINE PHOSPHOKINASE [3]: 178 u/L | CREATININE [3]: 0.19 mg/dL | GLUCOSE [3]: 178.67 mg/dL | LACTATE DEHYDROGENASE [3]: 95.67 u/L | LIPASE [3]: 9.33 u/L | PHOSPHORUS [3]: 13.57 mg/dL | POTASSIUM [3]: 6.76 MEQ/L | SODIUM [3]: 146.43 MEQ/L | TOTAL BILIRUBIN [3]: 0.23 mg/dL | TOTAL PROTEIN [3]: 6.37 G/DL | URIC ACID [3]: 3.2 mg/dL | ABSOLUTE BASOPHIL [4]: 0 CELLS/uL | ABSOLUTE EOSINOPHIL [4]: 131 CELLS/uL | ABSOLUTE LYMPHOCYTE [4]: 11771.67 CELLS/uL | ABSOLUTE MONOCYTE [4]: 175 CELLS/uL | ABSOLUTE SEGMENTED NEUTROPHIL [4]: 1055.67 CELLS/uL | BASOPHIL [4]: 0% | EOSINOPHIL [4]: 1% | ERYTHROCYTE COUNT [4]: 5.65 x10E6/uL | HEMATOCRIT [4]: 34.67% | HEMOGLOBIN [4]: 13 G/DL | LEUKOCYTE COUNT [4]: 13.13 x10E3/uL | LYMPHOCYTE [4]: 89.67% | MEAN CORPUSCULAR HEMOGLOBIN [4]: 22.97 pg | MEAN CORPUSCULAR HEMOGLOBIN CONCENTRATION [4]: 37.5 G/DL | MEAN CORPUSCULAR VOLUME [4]: 61.37 fL | MONOCYTE [4]: 1.33% | NEUTROPHIL [4]: 8% | NUCLEATED RED BLOOD CELLS [4]: 0 /100WBC | PLATELET COUNT [4]: 1220 x10E3/uL | ALANINE AMINOTRANSFERASE [4]: 47.67 u/L | ALBUMIN [4]: 4.2 G/DL | ALKALINE PHOSPHATASE [4]: 278 u/L | ASPARTATE AMINOTRANSFERASE [4]: 83.67 u/L | BLOOD UREA NITROGEN [4]: 18.33 mg/dL | CARBON DIOXIDE [4]: 25.67 mmol/L | CHLORIDE [4]: 106.67 MEQ/L | CHOLESTEROL [4]: 68.33 mg/dL | CREATINE PHOSPHOKINASE [4]: 322.33 u/L | CREATININE [4]: 0.19 mg/dL | GLUCOSE [4]: 144.33 mg/dL | LACTATE DEHYDROGENASE [4]: 436.33 u/L | LIPASE [4]: 8.67 u/L | PHOSPHORUS [4]: 11.6 mg/dL | POTASSIUM [4]: 6.06 MEQ/L | SODIUM [4]: 146.23 MEQ/L | TOTAL BILIRUBIN [4]: 0.2 mg/dL | TOTAL PROTEIN [4]: 5.9 G/DL | URIC ACID [4]: 1.03 mg/dL
